We go through two compounds from patent EP0659438A1, “Conjugates consisting of peptidic T cell antigens and cell binding groups, and their use for therapy” (BOEHRINGER MANNHEIM GMBH, priority 1993, dated 1995).

Structures are written as SMILES.

This assay has as its system T-cell clone SP2.2. Put plainly: cells. The assay is classed as cell-based, human.

Regarding `CCN(CC)CCCC(C)Nc1ccnc2cc(Cl)ccc12` (centres unmarked) [Chloroquine], the “inhibition of conjugate induced proliferation” value is listed as “can inhibit” and the “reduction of P2-induced proliferation” value was determined as 50%. In addition, the inhibition at 300 µM (Homo sapiens, T-cell, read-out: inhibition of conjugate induced proliferation) turned out to be 100%.
Turning to `CC(=O)N[C@@H](CC(C)C)C(=O)N[C@@H](CC(C)C)C(=O)N[C@H](C=O)CCCNC(=N)N` [Leupeptin], the “effect on free peptide induced proliferation” value is on record as “almost no effect” and the “inhibition of conjugate induced proliferation” value is “can inhibit”.
